Source: PubChem BioAssay (NCI)
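Values below derive from 48-hour exposures of cells grown in 96-well plates, with endpoints linearly interpolated between the two concentrations bracketing the appropriate inhibition level. TGI marks complete inhibition of growth.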

Columns and labels:
Experiment in all cases: NCI anticancer screen, dose series, 48 h
[1] = test system: 786-0 renal
[2] = test system: A498 renal
[3] = test system: A549 NSCLC
[4] = test system: ACHN renal
[5] = test system: BT-549 breast
[6] = test system: CAKI-1 renal
[7] = test system: CCRF-CEM leukemia
[8] = test system: COLO 205 colon
[9] = test system: DU-145 prostate
[10] = test system: EKVX NSCLC
[11] = test system: HCC-2998 colon
[12] = test system: HCT-116 colon
[13] = test system: HCT-15 colon
[14] = test system: HL-60(TB) leukemia
[15] = test system: HOP-62 NSCLC
[16] = test system: HOP-92 NSCLC
[17] = test system: HS 578T breast
[18] = test system: HT29 colon
[19] = test system: IGROV1 ovarian
[20] = test system: K-562 leukemia
[21] = test system: KM12 colon
[22] = test system: LOX IMVI melanoma
[23] = test system: M14 melanoma
[24] = test system: MALME-3M melanoma
[25] = test system: MCF7 breast
[26] = test system: MDA-MB-231 breast
[27] = test system: MDA-MB-435
[28] = test system: MDA-N
[29] = test system: MOLT-4 leukemia
[30] = test system: NCI-H226 lung
[31] = test system: NCI-H23 lung
[32] = test system: NCI-H460 lung
[33] = test system: NCI-H522 lung
[34] = test system: NCI/ADR-RES ovarian
[35] = test system: OVCAR-3 ovarian
[36] = test system: OVCAR-4 ovarian
[37] = test system: OVCAR-5 ovarian
[38] = test system: OVCAR-8 ovarian
[39] = test system: PC-3 prostate
[40] = test system: RPMI-8226 leukemia
[41] = test system: RXF 393 renal
[42] = test system: SF-268 CNS
[43] = test system: SF-295 CNS
[44] = test system: SF-539 CNS
[45] = test system: SK-MEL-2 melanoma
[46] = test system: SK-MEL-28 melanoma
[47] = test system: SK-MEL-5 melanoma
[48] = test system: SK-OV-3 ovarian
[49] = test system: SN12C renal
[50] = test system: SNB-19 CNS
[51] = test system: SNB-75 CNS
[52] = test system: SR leukemia
[53] = test system: SW-620 colon
[54] = test system: T-47D breast
[55] = test system: TK-10 renal
[56] = test system: U251 CNS
[57] = test system: UACC-257 melanoma
[58] = test system: UACC-62 melanoma
[59] = test system: UO-31 renal

SMILES: COc1ccc(/C=C2\CCC(CNc3cc(C)on3)C2=O)cc1 (centres undefined)
- TGI [1]: > 100 µM
- TGI [2]: > 100 µM
- TGI [3]: > 100 µM
- TGI [4]: > 100 µM
- TGI [5]: > 100 µM
- TGI [6]: > 100 µM
- TGI [7]: > 100 µM
- TGI [8]: > 100 µM
- TGI [9]: > 100 µM
- TGI [10]: > 100 µM
- TGI [11]: > 100 µM
- TGI [12]: > 100 µM
- TGI [13]: > 100 µM
- TGI [14]: > 21.5 µM
- TGI [15]: > 100 µM
- TGI [16]: > 100 µM
- TGI [17]: > 100 µM
- TGI [18]: > 100 µM
- TGI [19]: > 100 µM
- TGI [20]: > 100 µM
- TGI [21]: > 100 µM
- TGI [22]: > 100 µM
- TGI [23]: > 100 µM
- TGI [24]: > 100 µM
- TGI [25]: > 100 µM
- TGI [26]: > 100 µM
- TGI [27]: > 100 µM
- TGI [28]: > 100 µM
- TGI [29]: > 100 µM
- TGI [30]: > 100 µM
- TGI [31]: > 100 µM
- TGI [32]: > 100 µM
- TGI [33]: > 100 µM
- TGI [34]: > 100 µM
- TGI [35]: > 100 µM
- TGI [36]: > 100 µM
- TGI [37]: > 100 µM
- TGI [38]: > 100 µM
- TGI [39]: > 100 µM
- TGI [40]: > 100 µM
- TGI [41]: > 21.5 µM
- TGI [42]: > 100 µM
- TGI [43]: > 100 µM
- TGI [44]: > 100 µM
- TGI [45]: > 100 µM
- TGI [46]: > 100 µM
- TGI [47]: > 100 µM
- TGI [48]: > 100 µM
- TGI [49]: > 100 µM
- TGI [50]: > 95.5 µM
- TGI [51]: > 76.4 µM
- TGI [52]: > 100 µM
- TGI [53]: > 100 µM
- TGI [54]: > 91.1 µM
- TGI [55]: > 100 µM
- TGI [56]: > 100 µM
- TGI [57]: > 100 µM
- TGI [58]: > 100 µM
- TGI [59]: > 100 µM
